# Patent US20100190788A1, “Amide derivatives as kinase inhitors” (priority 2005, published 2010)
# Target: T1, human ROCKα/ROCKII mix (Homo sapiens, UniProt O75116)
# T1 construct: purchased Upstate Biotechnology 14-451
# Experiment: ROCK inhibition, fluorescence polarization (FP) assay with ROCK IMAP Kit
# Format: biochemical
# Conditions: Table 1, compounds of Formula IV20
# Protocol: The compounds were tested for inhibition of human ROCKα/ROCKII mix.
# The inhibition assays were performed with a fluorescence polarization (FP) assay using the commercially available ROCK IMAP Kit from Molecular Devices (Product ID. No. R8093), essentially in accordance with the protocol supplied by the manufacturer. […] The enzyme mix ROCKα/ROCKII was obtained from Upstate Biotechnology (Product ID No 14-451).
# In summary, all compounds were screened in the wells of a 384 well plate for enzymatic inhibition with concentrations varying from 100 μM to 0.3 nM using a stepwise 3 (or 2)-fold dilution.
# To perform the assay, 1 μl of a solution of the compound to be tested in DMSO (at each concentration) was added to 2 μl of a solution of the enzyme in 10 mM Tris-HCl, 10 mM MgCl2, 0.1% BSA, 0.05% NaN3, pH 7.2. The final concentration of the enzyme was 2.6 nM.
# After incubating for 30 minutes at RT, 2 μl of a mixture of ATP and the protein substrate in 10 mM Tris-HCl, 10 mM MgCl2, 0.1% BSA, 0.05% NaN3, pH 7.2 was added. The final concentration of the ATP was 10 μM and final concentration of protein substrate was 0.2 μM.
# After incubating for 60 minutes at RT, 12 μl of the IMAP Binding Solution (mix of the IMAP Binding Buffer A (1×) and the IMAP Binding Reagent (from the ROCK IMAP kit)) was added.
# The mixture thus obtained (total volume: 17 μl) was incubated for 60 minutes at RT, upon which the fluorescence polarization was measured using an automated plate reader (Perkin Elmer, Model Envision 2100-0010 HTS) with FP filters: excitation filter FITC FP 480 and emission filters FITC FP P-pol 535 and FITC FP S-pol 535 (Perkin-Elmer). The results were fitted to a curve using the XL-Fit algorithm and IC50 values were calculated for each fitted curve, again using the XL-Fit algorithm.
# T1 sequence (O75116 whole entry): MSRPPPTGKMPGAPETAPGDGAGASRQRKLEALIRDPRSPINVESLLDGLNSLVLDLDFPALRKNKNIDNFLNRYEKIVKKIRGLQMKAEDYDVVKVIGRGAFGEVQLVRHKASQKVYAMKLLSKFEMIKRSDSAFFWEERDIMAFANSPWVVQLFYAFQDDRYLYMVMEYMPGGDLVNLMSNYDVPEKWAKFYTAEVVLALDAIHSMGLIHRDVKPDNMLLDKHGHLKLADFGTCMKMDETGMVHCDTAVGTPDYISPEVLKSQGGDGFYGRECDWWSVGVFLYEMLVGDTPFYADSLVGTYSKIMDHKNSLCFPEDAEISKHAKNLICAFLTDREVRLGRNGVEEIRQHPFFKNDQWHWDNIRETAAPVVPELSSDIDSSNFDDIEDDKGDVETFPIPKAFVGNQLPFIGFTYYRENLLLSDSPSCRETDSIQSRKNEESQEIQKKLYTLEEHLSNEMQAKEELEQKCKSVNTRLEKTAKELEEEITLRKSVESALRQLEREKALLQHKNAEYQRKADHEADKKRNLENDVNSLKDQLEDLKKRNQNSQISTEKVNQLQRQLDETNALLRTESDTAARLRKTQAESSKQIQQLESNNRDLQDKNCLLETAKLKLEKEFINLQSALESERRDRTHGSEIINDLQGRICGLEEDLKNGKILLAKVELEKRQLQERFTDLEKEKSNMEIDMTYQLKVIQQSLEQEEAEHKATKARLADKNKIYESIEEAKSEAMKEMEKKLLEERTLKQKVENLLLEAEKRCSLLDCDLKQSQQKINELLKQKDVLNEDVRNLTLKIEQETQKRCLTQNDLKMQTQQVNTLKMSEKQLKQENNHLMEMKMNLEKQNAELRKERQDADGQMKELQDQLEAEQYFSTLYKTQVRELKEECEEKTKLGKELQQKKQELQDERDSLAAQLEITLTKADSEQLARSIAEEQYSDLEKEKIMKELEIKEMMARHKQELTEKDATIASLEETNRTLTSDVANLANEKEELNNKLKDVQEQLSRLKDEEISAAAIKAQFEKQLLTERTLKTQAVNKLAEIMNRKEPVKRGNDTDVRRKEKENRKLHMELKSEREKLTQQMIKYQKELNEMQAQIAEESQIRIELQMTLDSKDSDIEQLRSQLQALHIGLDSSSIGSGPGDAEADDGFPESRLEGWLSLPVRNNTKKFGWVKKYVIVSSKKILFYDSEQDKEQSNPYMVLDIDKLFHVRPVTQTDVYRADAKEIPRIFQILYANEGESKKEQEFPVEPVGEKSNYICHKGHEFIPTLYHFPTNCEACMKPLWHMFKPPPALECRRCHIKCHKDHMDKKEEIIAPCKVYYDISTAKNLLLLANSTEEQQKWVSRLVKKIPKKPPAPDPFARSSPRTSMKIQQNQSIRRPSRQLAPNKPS
row,Molecule,IC50 [µM]
1,4-[1-amino-2-(1-methyl-piperidin-1-yl)-2-oxo-ethyl]-N-pyridin-4-yl-benzamide [Compound 26],< 0.5
2,"CC[C@H](NC(=O)C(N)c1ccc(C(=O)Nc2ccncc2)cc1)c1ccccc1 (stereo partly drawn) [Compound 5, 4-[amino-(1-(S)-phenyl-propylcarbamoyl)-methyl]-N-pyridin-4-yl-benzamide]",0.5 to 5
3,"NC(C(=O)NCc1ccccn1)c1ccc(C(=O)Nc2ccncc2)cc1 (stereo not shown) [Compound 10, 4-{amino-[(pyridin-2-ylmethyl)-carbamoyl]-methyl}-N-pyridin-4-yl-benzamide]",0.5 to 5
4,"NC(C(=O)NCc1ccncc1)c1ccc(C(=O)Nc2ccncc2)cc1 (stereo not shown) [Compound 11, 4-{amino-[(pyridin-4-ylmethyl)-carbamoyl]-methyl}-N-pyridin-4-yl-benzamide]",0.5 to 5
5,"NC(C(=O)NCCn1cccn1)c1ccc(C(=O)Nc2ccncc2)cc1 (stereo not shown) [Compound 18, 4-[amino-(2-pyrazol-1-yl-ethylcarbamoyl)-methyl]-N-pyridin-4-yl-benzamide]",0.5 to 5
6,"NC(C(=O)NCCn1ccnc1)c1ccc(C(=O)Nc2ccncc2)cc1 (stereo not shown) [Compound 19, 4-[amino-(2-imidazol-1-yl-ethylcarbamoyl)-methyl]-N-pyridin-4-yl-benzamide]",0.5 to 5
7,"NC(C(=O)Nc1ccccc1)c1ccc(C(=O)Nc2ccncc2)cc1 (stereo not shown) [Compound 20, 4-(amino-phenylcarbamoyl-methyl)-N-pyridin-4-yl-benzamide]",0.5 to 5
8,COc1ccc(NC(=O)C(N)c2ccc(C(=O)Nc3ccncc3)cc2)cc1 (stereo not shown) [Compound 21],< 0.5
9,"CCNC(=O)C(N)c1ccc(C(=O)Nc2ccncc2)cc1 (stereo not shown) [Compound 22, 4-(amino-ethylcarbamoyl-methyl)-N-pyridin-4-yl-benzamide]",0.5 to 5
10,"CC(C)C(C)NC(=O)C(N)c1ccc(C(=O)Nc2ccncc2)cc1 (stereo not shown) [Compound 23, 4-[amino-(1,2-dimethyl-propylcarbamoyl)-methyl]-N-pyridin-4-yl-benzamide]",0.5 to 5
11,"CCC(C)(C)NC(=O)C(N)c1ccc(C(=O)Nc2ccncc2)cc1 (stereo not shown) [Compound 24, 4-[amino-(1,1-dimethyl-propylcarbamoyl)-methyl]-N-pyridin-4-yl-benzamide]",0.5 to 5
12,"NC(C(=O)NCC1CC1)c1ccc(C(=O)Nc2ccncc2)cc1 (stereo not shown) [Compound 25, 4-[amino-(cyclopropylmethyl-carbamoyl)-methyl]-N-pyridin-4-yl-benzamide]",0.5 to 5
13,"CC1CC(C)CN(C(=O)C(N)c2ccc(C(=O)Nc3ccncc3)cc2)C1 (stereo not shown) [Compound 27, 4-[1-amino-2-(3,5-dimethyl-piperidin-1-yl)-2-oxo-ethyl]-N-pyridin-4-yl-benzamide]",< 0.5
14,"NC(C(=O)N1CCC(c2ccccc2)CC1)c1ccc(C(=O)Nc2ccncc2)cc1 (stereo not shown) [Compound 28, 4-[1-amino-2-(4-phenyl-piperidin-1-yl)-2-oxo-ethyl]-N-pyridin-4-yl-benzamide]",0.5 to 5
15,"NC(C(=O)N1CC=C(c2ccc(F)cc2)CC1)c1ccc(C(=O)Nc2ccncc2)cc1 (stereo not shown) [Compound 29, 4-{1-amino-2-[4-(4-fluoro-phenyl)-3,6-dihydro-2H-pyridin-1-yl]-2-oxo-ethyl}-N-pyridin-4-yl-benzamide]",0.5 to 5
16,"NC(C(=O)N1CCC(c2nc3ccccc3o2)CC1)c1ccc(C(=O)Nc2ccncc2)cc1 (stereo not shown) [Compound 30, 4-[1-amino-2-(4-benzooxazol-2-yl-piperidin-1-yl)-2-oxo-ethyl]-N-pyridin-4-yl-benzamide]",< 0.5
17,"NC(C(=O)N1CCC(Cc2ccccc2)CC1)c1ccc(C(=O)Nc2ccncc2)cc1 (stereo not drawn) [Compound 31, 4-[1-amino-2-(4-benzyl-piperidin-l-yl)-2-oxo-ethyl]-N-pyridin-4-yl-benzamide]",0.5 to 5
18,"NC(C(=O)NC1CCCCC1)c1ccc(C(=O)Nc2ccncc2)cc1 (stereo not shown) [Compound 32, 4-(amino-cyclohexylcarbamoyl-methyl)-N-pyridin-4-yl-benzamide]",0.5 to 5
19,"CC1CCC(NC(=O)C(N)c2ccc(C(=O)Nc3ccncc3)cc2)CC1 (stereo not shown) [Compound 33, 4-[amino-(4-methyl-cyclohexylcarbamoyl)-methyl]-N-pyridin-4-yl-benzamide]",0.5 to 5
20,"NC(C(=O)N1CCOCC1)c1ccc(C(=O)Nc2ccncc2)cc1 (stereo not shown) [Compound 34, 4-(1-amino-2-mopholin-4-yl-2-oxo-ethyl)-N-pyridin-4-yl-benzamide]",< 0.5
21,"CC1CN(C(=O)C(N)c2ccc(C(=O)Nc3ccncc3)cc2)CC(C)O1 (stereo not shown) [Compound 35, 4-[1-amino-2-(2,6-dimethyl-mopholin-4-yl)-2-oxo-ethyl]-N-pyridin-4-yl-benzamide]",0.5 to 5
22,"NC(C(=O)N1CCCC(CO)C1)c1ccc(C(=O)Nc2ccncc2)cc1 (stereo not shown) [Compound 36, 4-[1-amino-2-(3-hydroxymethyl-piperidin-1-yl)-2-oxo-ethyl]-N-pyridin-4-yl-benzamide]",0.5 to 5
23,"NC(C(=O)NCC1CCCO1)c1ccc(C(=O)Nc2ccncc2)cc1 (stereo not shown) [Compound 37, 4-{amino-[(tetrahydro-furan-2-ylmethyl)-carbamoyl]-methyl}-N-pyridin-4-yl-benzamide]",0.5 to 5
24,"NC(C(=O)N1CCC(O)(c2ccccc2)CC1)c1ccc(C(=O)Nc2ccncc2)cc1 (stereo not shown) [Compound 38, 4-[1-amino-2-(4-hydroxy-4-phenyl-piperidin-1-yl)-2-oxo-ethyl]-N-pyridin-4-yl-benzamide]",0.5 to 5
25,"COCCNC(=O)C(N)c1ccc(C(=O)Nc2ccncc2)cc1 (stereo not shown) [Compound 39, 4-[amino-(2-methoxy-ethylcarbamoyl)-methyl]-N-pyridin-4-yl-benzamide]",0.5 to 5
26,"CS(=O)(=O)NCCNC(=O)C(N)c1ccc(C(=O)Nc2ccncc2)cc1 (stereo not shown) [Compound 40, 4-[amino-(2-methanesulfonylamino-ethylcarbamoyl)-methyl]-N-pyridin-4-yl-benzamide]",0.5 to 5

# The remaining lines, values ahead:
row,IC50 [µM],Molecule
1,< 0.5,NC(C(=O)NCc1ccccc1)c1ccc(C(=O)Nc2ccncc2)cc1 (stereo not shown) [Compound 1]
2,< 0.5,"CC(NC(=O)C(N)c1ccc(C(=O)Nc2ccncc2)cc1)c1ccccc1 (stereo not shown) [Compound 2, 4-[amino-(1-phenyl-ethylcarbamoyl)-methyl]-N-pyridin-4-yl-benzamide]"
3,< 0.5,"CN(Cc1ccccc1)C(=O)C(N)c1ccc(C(=O)Nc2ccncc2)cc1 (stereo not shown) [Compound 3, 4-[amino-(benzyl-methyl-carbamoyl)-methyl]-N-pyridin-4-yl-benzamide]"
4,< 0.5,"CCC(NC(=O)C(N)c1ccc(C(=O)Nc2ccncc2)cc1)c1ccccc1 (stereo not shown) [Compound 4, 4-[amino-(1-phenyl-propylcarbamoyl)-methyl]-N-pyridin-4-yl-benzamide]"
5,< 0.5,"NC(C(=O)NCc1ccccc1Cl)c1ccc(C(=O)Nc2ccncc2)cc1 (stereo not shown) [Compound 6, 4-[amino-(2-chloro-benzylcarbamoyl)-methyl]-N-pyridin-4-yl-benzamide]"
6,< 0.5,"NC(C(=O)NCc1cccc(Cl)c1)c1ccc(C(=O)Nc2ccncc2)cc1 (stereo not shown) [Compound 7, 4-[amino-(3-chloro-benzylcarbamoyl)-methyl]-N-pyridin-4-yl-benzamide]"
7,< 0.5,"COc1ccc(CNC(=O)C(N)c2ccc(C(=O)Nc3ccncc3)cc2)cc1 (stereo not shown) [Compound 8, 4-[amino-(4-methoxy-benzylcarbamoyl)-methyl]-N-pyridin-4-yl-benzamide]"
8,< 0.5,"COc1ccccc1CNC(=O)C(N)c1ccc(C(=O)Nc2ccncc2)cc1 (stereo not shown) [Compound 9, 4-(amino-(2-methoxy-benzylcarbamoyl)-methyl]-N-pyridin-4-yl-benzamide]"
9,< 0.5,"NC(C(=O)NCc1ccco1)c1ccc(C(=O)Nc2ccncc2)cc1 (stereo not shown) [Compound 12, 4-{amino-[(furan-2-ylmethyl)-carbamoyl]-methyl}-N-pyridin-4-yl-benzamide]"
10,< 0.5,"NC(C(=O)N1CCc2ccccc2C1)c1ccc(C(=O)Nc2ccncc2)cc1 (stereo not shown) [Compound 13, 4-[1-amino-2-(3,4-dihydro-1H-isoquinolin-2-yl)-2-oxo-ethyl]-N-pyridin-4-yl-benzamide]"
11,< 0.5,"NC(C(=O)NCCc1ccccc1)c1ccc(C(=O)Nc2ccncc2)cc1 (stereo not shown) [Compound 14, 4-(amino-phenethylcarbamoyl-methyl)-N-pyridin-4-yl-benzamide]"
12,< 0.5,"NC(C(=O)NC1Cc2ccccc2C1)c1ccc(C(=O)Nc2ccncc2)cc1 (stereo not shown) [Compound 15, 4-[amino-(indan-2-ylcarbamoyl)-methyl]-N-pyridin-4-yl-benzamide]"
13,< 0.5,"NC(C(=O)NCCc1ccc(F)cc1)c1ccc(C(=O)Nc2ccncc2)cc1 (stereo not shown) [Compound 16, 4-{amino-[2-(4-fluoro-phenyl)ethylcarbamoyl]-methyl}-N-pyridin-4-yl-benzamide]"
14,< 0.5,"NC(C(=O)NCCc1cccs1)c1ccc(C(=O)Nc2ccncc2)cc1 (stereo not shown) [Compound 17, 4-[amino-(2-thiophen-2-yl-ethylcarbamoyl)-methyl]-N-pyridin-4-yl-benzamide]"
